One data set has as its target Nitric oxide synthase 1 (Rattus norvegicus, UniProt P29476). The experiment in a line: Inhibition of rat recombinant nNOS expressed in Escherichia coli using L-arginine as substrate assessed as reduction in NO production measured for 6 mins in presence of tetrahydrobiopterin by hemoglobin capture assay.
Data set [1] addresses T1, Nitric oxide synthase, inducible (Mus musculus, UniProt P29477).
T1 sequence (P29477 whole entry): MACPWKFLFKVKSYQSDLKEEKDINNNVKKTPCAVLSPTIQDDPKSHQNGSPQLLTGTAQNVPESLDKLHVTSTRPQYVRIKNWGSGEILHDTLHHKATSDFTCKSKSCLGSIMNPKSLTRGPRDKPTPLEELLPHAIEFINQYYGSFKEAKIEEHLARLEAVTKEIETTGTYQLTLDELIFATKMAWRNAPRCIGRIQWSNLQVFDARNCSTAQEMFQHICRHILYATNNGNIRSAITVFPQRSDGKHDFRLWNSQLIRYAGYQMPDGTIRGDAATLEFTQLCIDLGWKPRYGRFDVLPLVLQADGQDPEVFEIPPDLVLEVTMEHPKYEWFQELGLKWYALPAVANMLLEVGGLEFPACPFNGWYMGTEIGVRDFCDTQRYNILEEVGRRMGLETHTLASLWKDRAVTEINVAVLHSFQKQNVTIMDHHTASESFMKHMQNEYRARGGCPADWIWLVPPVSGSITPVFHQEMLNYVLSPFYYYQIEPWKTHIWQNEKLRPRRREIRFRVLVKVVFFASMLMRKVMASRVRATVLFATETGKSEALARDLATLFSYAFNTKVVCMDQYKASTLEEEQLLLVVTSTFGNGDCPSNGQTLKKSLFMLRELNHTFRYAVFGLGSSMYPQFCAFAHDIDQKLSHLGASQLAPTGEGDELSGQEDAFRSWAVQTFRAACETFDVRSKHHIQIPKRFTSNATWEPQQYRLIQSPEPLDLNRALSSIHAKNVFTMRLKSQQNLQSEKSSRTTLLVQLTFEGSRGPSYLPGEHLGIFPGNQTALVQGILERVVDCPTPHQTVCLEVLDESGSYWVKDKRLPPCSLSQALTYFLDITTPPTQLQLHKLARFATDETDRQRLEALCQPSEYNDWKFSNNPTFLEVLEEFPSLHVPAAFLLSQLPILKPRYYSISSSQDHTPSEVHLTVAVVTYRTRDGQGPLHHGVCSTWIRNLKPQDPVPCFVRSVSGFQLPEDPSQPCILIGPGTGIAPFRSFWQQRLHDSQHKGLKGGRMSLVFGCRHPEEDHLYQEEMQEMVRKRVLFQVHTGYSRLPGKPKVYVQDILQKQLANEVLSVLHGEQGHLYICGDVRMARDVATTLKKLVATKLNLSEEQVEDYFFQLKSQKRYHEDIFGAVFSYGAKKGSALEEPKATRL
Briefly: Inhibition of recombinant mouse macrophage iNOS expressed in Escherichia coli using L-arginine as substrate assessed as reduction in NO production measured for 6 mins by hemoglobin capture assay.

The nature of data set [2]: Drug metabolism in human liver microsomes at 1 uM preincubated for 5 mins followed by NADPH addition measured after […] mins by LC-MS/MS analysis. The class given is ADME. Particulars: read-out: Drug metabolism.
A further data set has as its target Cytochrome P450 2C9 (Homo sapiens, UniProt P11712). Briefly: Inhibition of CYP2C9 in human liver microsomes using diclofenac as substrate at 10 uM preincubated for 5 mins followed by NADPH addition measured after 10 mins by LC-MS/MS analysis relative to control. The class given is ADME. Background: Liver microsomes are vesicles of endoplasmic reticulum, rich in cytochrome P450 enzymes.

The next data set concerns the target Cytochrome P450 2D6 (Homo sapiens, UniProt P10635). Briefly: Inhibition of CYP2D6 in human liver microsomes using bufuralol as substrate at 10 uM preincubated for 5 mins followed by NADPH addition measured after 10 mins by LC-MS/MS analysis relative to control. It is filed as ADME.
Data set [3] is described as follows: Permeability from apical to basolateral side in human Caco2 cells at 10 uM after 2 hrs by LC-MS/MS analysis. Conditions: caco-2, 2 h. The class given is ADME, cell-based.
Data set [4] in a line: Drug metabolism in human liver microsomes at 1 uM incubated for 60 mins by LC-MS/MS analysis. The class given is ADME. Particulars: read-out: Drug metabolism.
A further data set concerns the target T2, Cytochrome P450 1A2 (Homo sapiens, UniProt P05177).
T2 sequence (P05177 whole entry): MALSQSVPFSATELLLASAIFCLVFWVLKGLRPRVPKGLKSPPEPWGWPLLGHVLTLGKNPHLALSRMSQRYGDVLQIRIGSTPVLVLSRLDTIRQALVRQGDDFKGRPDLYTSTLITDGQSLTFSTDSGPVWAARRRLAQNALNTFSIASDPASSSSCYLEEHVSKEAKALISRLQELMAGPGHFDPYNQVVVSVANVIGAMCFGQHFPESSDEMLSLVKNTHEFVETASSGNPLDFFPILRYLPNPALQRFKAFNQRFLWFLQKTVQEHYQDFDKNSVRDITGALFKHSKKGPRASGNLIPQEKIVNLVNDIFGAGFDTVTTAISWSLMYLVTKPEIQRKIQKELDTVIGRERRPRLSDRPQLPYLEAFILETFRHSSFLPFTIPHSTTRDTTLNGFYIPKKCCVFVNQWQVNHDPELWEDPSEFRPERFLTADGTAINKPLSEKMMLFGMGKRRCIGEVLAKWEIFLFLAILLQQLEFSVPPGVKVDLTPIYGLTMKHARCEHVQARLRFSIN
Briefly: Inhibition of CYP1A2 in human liver microsomes using phenacetin as substrate at 10 uM preincubated for 5 mins followed by NADPH addition measured after 10 mins by LC-MS/MS analysis relative to control. The class given is ADME.

Each structure is given as a SMILES string.

Data on 3 compounds can be found in ChEMBL document CHEMBL3817743, “Potent and Selective Human Neuronal Nitric Oxide Synthase Inhibition by Optimization of the 2-Aminopyridine-Based Scaffold with a Pyridine Linker” (J Med Chem, 2016).

Nitric oxide synthase 1, sequence (P29476 whole entry): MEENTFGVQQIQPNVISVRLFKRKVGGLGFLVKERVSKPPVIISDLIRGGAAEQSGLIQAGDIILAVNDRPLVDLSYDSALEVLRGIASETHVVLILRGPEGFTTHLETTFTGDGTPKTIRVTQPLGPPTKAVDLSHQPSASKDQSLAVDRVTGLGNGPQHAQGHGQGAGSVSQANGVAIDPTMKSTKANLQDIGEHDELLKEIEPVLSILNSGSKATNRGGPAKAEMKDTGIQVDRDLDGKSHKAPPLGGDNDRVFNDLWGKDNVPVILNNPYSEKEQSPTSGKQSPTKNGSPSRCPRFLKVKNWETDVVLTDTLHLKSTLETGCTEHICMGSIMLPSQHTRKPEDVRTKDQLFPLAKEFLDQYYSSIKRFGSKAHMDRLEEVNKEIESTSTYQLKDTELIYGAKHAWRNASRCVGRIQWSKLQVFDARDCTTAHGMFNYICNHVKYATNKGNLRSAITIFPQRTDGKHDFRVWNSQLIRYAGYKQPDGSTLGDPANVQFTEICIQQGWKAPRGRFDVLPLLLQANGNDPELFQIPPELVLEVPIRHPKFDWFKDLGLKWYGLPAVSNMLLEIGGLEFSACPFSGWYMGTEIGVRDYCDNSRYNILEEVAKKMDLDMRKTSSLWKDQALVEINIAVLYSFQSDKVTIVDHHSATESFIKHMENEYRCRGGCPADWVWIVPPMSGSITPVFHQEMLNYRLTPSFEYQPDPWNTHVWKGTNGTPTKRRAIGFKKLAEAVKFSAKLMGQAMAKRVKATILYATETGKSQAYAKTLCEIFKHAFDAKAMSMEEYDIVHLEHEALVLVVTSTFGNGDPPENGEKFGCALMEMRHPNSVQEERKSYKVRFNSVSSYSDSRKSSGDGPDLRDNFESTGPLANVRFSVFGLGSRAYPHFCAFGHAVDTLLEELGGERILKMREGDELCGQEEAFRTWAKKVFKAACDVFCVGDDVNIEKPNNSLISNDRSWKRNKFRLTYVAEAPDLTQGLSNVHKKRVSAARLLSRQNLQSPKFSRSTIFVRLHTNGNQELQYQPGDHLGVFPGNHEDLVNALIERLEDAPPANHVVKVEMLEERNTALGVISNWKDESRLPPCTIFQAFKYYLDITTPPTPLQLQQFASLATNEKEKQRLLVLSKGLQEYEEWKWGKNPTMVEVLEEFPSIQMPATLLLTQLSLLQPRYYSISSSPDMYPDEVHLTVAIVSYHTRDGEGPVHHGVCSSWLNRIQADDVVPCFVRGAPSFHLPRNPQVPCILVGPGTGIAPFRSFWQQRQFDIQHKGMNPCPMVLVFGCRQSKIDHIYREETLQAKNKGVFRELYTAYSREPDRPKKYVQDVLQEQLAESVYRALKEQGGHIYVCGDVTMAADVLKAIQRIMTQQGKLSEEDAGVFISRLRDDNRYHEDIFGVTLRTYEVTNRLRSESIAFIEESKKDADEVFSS
Cytochrome P450 2D6, sequence (P10635 whole entry): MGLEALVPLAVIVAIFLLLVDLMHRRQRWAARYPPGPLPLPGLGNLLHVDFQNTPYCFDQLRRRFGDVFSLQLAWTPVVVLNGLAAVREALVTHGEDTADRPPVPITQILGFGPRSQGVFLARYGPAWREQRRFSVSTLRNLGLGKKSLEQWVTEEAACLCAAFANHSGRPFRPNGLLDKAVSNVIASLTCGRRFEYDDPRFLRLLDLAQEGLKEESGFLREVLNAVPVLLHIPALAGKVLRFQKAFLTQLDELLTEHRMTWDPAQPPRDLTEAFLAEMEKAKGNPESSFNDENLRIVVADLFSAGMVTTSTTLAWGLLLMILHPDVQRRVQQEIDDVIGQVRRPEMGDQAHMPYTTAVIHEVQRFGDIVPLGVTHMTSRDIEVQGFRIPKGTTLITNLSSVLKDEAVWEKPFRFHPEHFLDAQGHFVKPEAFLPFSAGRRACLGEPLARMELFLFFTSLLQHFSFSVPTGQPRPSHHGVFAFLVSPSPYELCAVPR
Cytochrome P450 2C9, sequence (P11712 whole entry): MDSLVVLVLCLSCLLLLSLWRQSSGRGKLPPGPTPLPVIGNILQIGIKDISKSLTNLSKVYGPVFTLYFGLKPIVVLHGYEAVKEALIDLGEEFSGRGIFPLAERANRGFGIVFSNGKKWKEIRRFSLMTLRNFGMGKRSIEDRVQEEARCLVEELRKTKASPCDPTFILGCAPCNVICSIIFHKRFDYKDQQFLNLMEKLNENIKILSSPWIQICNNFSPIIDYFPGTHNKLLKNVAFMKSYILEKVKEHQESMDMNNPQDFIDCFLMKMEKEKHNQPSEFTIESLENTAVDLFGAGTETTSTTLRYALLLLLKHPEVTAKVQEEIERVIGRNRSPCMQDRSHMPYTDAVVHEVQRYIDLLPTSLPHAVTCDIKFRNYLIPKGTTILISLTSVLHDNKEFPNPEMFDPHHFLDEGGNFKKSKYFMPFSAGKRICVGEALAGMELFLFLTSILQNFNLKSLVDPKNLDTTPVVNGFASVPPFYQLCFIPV

As usually defined, the Ki is a dissociation constant, usually derived from enzyme kinetics or from competition with a known ligand. For the compound `Cc1cc(N)nc(CCc2cncc(N3CCCCC3)c2)c1`, the inhibitory constant (Ki) is 1870 nM on Nitric oxide synthase 1 and 5640 nM in data set [1].
On to `CNCCCc1cncc(CCc2cc(C)cc(N)n2)c1`, for which the metabolised at […], 1 µM in data set [2] amounted to 23%. For the same compound, the “inhibition (INH)” value against Cytochrome P450 2C9 is on record as 0%; against Cytochrome P450 2D6 it was 6%; on Cytochrome P450 1A2, 9%. In addition, the permeability entry in data set [3] was “impermeable”. Also, in data set [4], the metabolised at 1 h, 1 µM is 23%.
Regarding `Cc1cc(N)nc(CCc2cccnc2)c1`, the Ki at Nitric oxide synthase 1 worked out at 706 nM; in data set [1] it was 2780 nM.
